Laboratory results: PubChem BioAssay AID1918949 (Molecular Pharmacology Branch, DTP, NCI, 2023)

Test system: K24384-001-R-PDC complex spheroid viability
Test: Anticancer human tumor K24384-001-R-PDC patient-derived pancreatic adenocarcinoma cell line growth inhibition
Settings: for IC50: curve of first compound; for viability, T/C: stronger effect = lower value; active means viability on the fitted dose curve at most 10% of control; inactive means the rest
Method in brief: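 Complex spheroids of tumor cells with HUVEC and human MSCs, exposed to iadademstat combined with other agents. Each agent tested in half-log steps from near clinical Cmax (else 10 microM top), DMSO ≤0.25%.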

[1] = second compound 0.1 µM, first compound 0.00949 µM
[2] = second compound 0.1 µM, first compound 0.03 µM
[3] = second compound 0.1 µM, first compound 0.0949 µM
[4] = second compound 0.1 µM, first compound 0.3 µM
[5] = second compound 0.316 µM, first compound 0.00949 µM
[6] = second compound 0.316 µM, first compound 0.03 µM
[7] = second compound 0.316 µM, first compound 0.0949 µM
[8] = second compound 0.316 µM, first compound 0.3 µM
[9] = second compound 1 µM, first compound 0.00949 µM
[10] = second compound 1 µM, first compound 0.03 µM
[11] = second compound 1 µM, first compound 0.0949 µM
[12] = second compound 1 µM, first compound 0.3 µM
[13] = second compound 3.16 µM, first compound 0.00949 µM
[14] = second compound 3.16 µM, first compound 0.03 µM
[15] = second compound 3.16 µM, first compound 0.0949 µM
[16] = second compound 3.16 µM, first compound 0.3 µM
[17] = second compound 10 µM, first compound 0.00949 µM
[18] = second compound 10 µM, first compound 0.03 µM
[19] = second compound 10 µM, first compound 0.0949 µM
[20] = second compound 10 µM, first compound 0.3 µM
[21] = second compound 0.1 µM, first compound 0.0316 µM
[22] = second compound 0.1 µM, first compound 0.1 µM
[23] = second compound 0.1 µM, first compound 0.316 µM
[24] = second compound 0.1 µM, first compound 1 µM
[25] = second compound 0.316 µM, first compound 0.0316 µM
[26] = second compound 0.316 µM, first compound 0.1 µM
[27] = second compound 0.316 µM, first compound 0.316 µM
[28] = second compound 0.316 µM, first compound 1 µM
[29] = second compound 1 µM, first compound 0.0316 µM
[30] = second compound 1 µM, first compound 0.1 µM
[31] = second compound 1 µM, first compound 0.316 µM
[32] = second compound 1 µM, first compound 1 µM
[33] = second compound 3.16 µM, first compound 0.0316 µM
[34] = second compound 3.16 µM, first compound 0.1 µM
[35] = second compound 3.16 µM, first compound 0.316 µM
[36] = second compound 3.16 µM, first compound 1 µM
[37] = second compound 10 µM, first compound 0.0316 µM
[38] = second compound 10 µM, first compound 0.1 µM
[39] = second compound 10 µM, first compound 0.316 µM
[40] = second compound 10 µM, first compound 1 µM
[41] = second compound 0.1 µM, first compound 3.16 µM
[42] = second compound 0.1 µM, first compound 10 µM
[43] = second compound 0.316 µM, first compound 3.16 µM
[44] = second compound 0.316 µM, first compound 10 µM
[45] = second compound 1 µM, first compound 3.16 µM
[46] = second compound 1 µM, first compound 10 µM
[47] = second compound 3.16 µM, first compound 3.16 µM
[48] = second compound 3.16 µM, first compound 10 µM
[49] = second compound 10 µM, first compound 3.16 µM
[50] = second compound 10 µM, first compound 10 µM
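Further: spheroids exposed to agents for seven days before luminescence viability reading.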
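Wherever viability, T/C is given: 100% = DMSO vehicle control viability.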

NS(=O)(=O)OCC1CC(n2ccc3c(NC4CCc5ccccc54)ncnc32)CC1O (stereo not given) + NC1CCC(NC2CC2c2ccccc2)CC1
517 nM: IC50 (second compound 0.316 µM)
445 nM: IC50 (second compound 3.16 µM)
506 nM: IC50 (second compound 0.1 µM)
412 nM: IC50 (second compound 1 µM)
441 nM: IC50 (second compound 10 µM)
inactive: viability, T/C [1] 98.6% | viability, T/C [2] 138% | viability, T/C [3] 125% | viability, T/C [4] 64.8% | viability, T/C (second compound 0.1 µM, first compound 0.949 µM) 38.5% | viability, T/C (second compound 0.1 µM, first compound 3 µM) 26.1% | viability, T/C [5] 87.6% | viability, T/C [6] 142% | viability, T/C [7] 144% | viability, T/C [8] 67.9% | viability, T/C (second compound 0.316 µM, first compound 0.949 µM) 34.1% | viability, T/C (second compound 0.316 µM, first compound 3 µM) 26.1% | viability, T/C [9] 109% | viability, T/C [10] 138% | viability, T/C [11] 124% | viability, T/C [12] 56.6% | viability, T/C (second compound 1 µM, first compound 0.949 µM) 37.8% | viability, T/C (second compound 1 µM, first compound 3 µM) 27.2% | viability, T/C [13] 93.2% | viability, T/C [14] 138% | viability, T/C [15] 118% | viability, T/C [16] 59.7% | viability, T/C (second compound 3.16 µM, first compound 0.949 µM) 37.1% | viability, T/C (second compound 3.16 µM, first compound 3 µM) 25.9% | viability, T/C [17] 91.2% | viability, T/C [18] 116% | viability, T/C [19] 95.7% | viability, T/C [20] 58.4% | viability, T/C (second compound 10 µM, first compound 0.949 µM) 31.9% | viability, T/C (second compound 10 µM, first compound 3 µM) 13.2%

COc1cc(Nc2ncc3c(n2)-c2ccc(Cl)cc2C(c2c(F)cccc2OC)=NC3)ccc1C(=O)O + NC1CC1c1ccc(-c2cccc(O)c2)cc1
inactive: viability, T/C (second compound 0.1 µM, first compound 0.00316 µM) 74.2% | viability, T/C (second compound 0.1 µM, first compound 0.01 µM) 72.7% | viability, T/C [21] 62.4% | viability, T/C [22] 57.3% | viability, T/C [23] 55.8% | viability, T/C [24] 60.3% | viability, T/C (second compound 0.316 µM, first compound 0.00316 µM) 68% | viability, T/C (second compound 0.316 µM, first compound 0.01 µM) 63.1% | viability, T/C [25] 51.9% | viability, T/C [26] 47.8% | viability, T/C [27] 45.5% | viability, T/C [28] 58.9% | viability, T/C (second compound 1 µM, first compound 0.00316 µM) 61.1% | viability, T/C (second compound 1 µM, first compound 0.01 µM) 62.5% | viability, T/C [29] 52.8% | viability, T/C [30] 43.7% | viability, T/C [31] 43.2% | viability, T/C [32] 48.9% | viability, T/C (second compound 3.16 µM, first compound 0.00316 µM) 56.6% | viability, T/C (second compound 3.16 µM, first compound 0.01 µM) 64% | viability, T/C [33] 50.4% | viability, T/C [34] 39.6% | viability, T/C [35] 42.5% | viability, T/C [36] 49.8% | viability, T/C (second compound 10 µM, first compound 0.00316 µM) 65.4% | viability, T/C (second compound 10 µM, first compound 0.01 µM) 62.4% | viability, T/C [37] 45.7% | viability, T/C [38] 44.6% | viability, T/C [39] 42.4% | viability, T/C [40] 54.7%
> 1000 nM: IC50 (second compound 0.1 µM) | IC50 (second compound 0.316 µM)
48.3 nM: IC50 (second compound 1 µM)
25.1 nM: IC50 (second compound 10 µM)
34.1 nM: IC50 (second compound 3.16 µM)

O=C(c1cc(Cc2n[nH]c(=O)c3ccccc23)ccc1F)N1CCN(C(=O)C2CC2)CC1 + NC1CCC(NC2CC2c2ccccc2)CC1
inactive: viability, T/C [21] 75.1% | viability, T/C [22] 79.7% | viability, T/C [23] 81.6% | viability, T/C [24] 86.5% | viability, T/C [41] 69.3% | viability, T/C [42] 91.8% | viability, T/C [25] 74.6% | viability, T/C [26] 74.8% | viability, T/C [27] 79.5% | viability, T/C [28] 71.2% | viability, T/C [43] 79.4% | viability, T/C [44] 77.8% | viability, T/C [29] 78.1% | viability, T/C [30] 75.8% | viability, T/C [31] 75.3% | viability, T/C [32] 72.4% | viability, T/C [45] 75.2% | viability, T/C [46] 81% | viability, T/C [33] 81.9% | viability, T/C [34] 81.8% | viability, T/C [35] 77.8% | viability, T/C [36] 75.6% | viability, T/C [47] 69.7% | viability, T/C [48] 71.1% | viability, T/C [37] 75.2% | viability, T/C [38] 101% | viability, T/C [39] 68.3% | viability, T/C [40] 73.4% | viability, T/C [49] 65% | viability, T/C [50] 68.8%
> 10000 nM: IC50 (second compound 0.1 µM) | IC50 (second compound 0.316 µM) | IC50 (second compound 1 µM) | IC50 (second compound 3.16 µM) | IC50 (second compound 10 µM)

Nc1ccn(C2OC(CO)C(O)C2(F)F)c(=O)n1 (stereo not given) + NC1CCC(NC2CC2c2ccccc2)CC1
87.6 nM: IC50 (second compound 3.16 µM)
49.6 nM: IC50 (second compound 0.316 µM)
57.9 nM: IC50 (second compound 0.1 µM)
53.2 nM: IC50 (second compound 10 µM)
44.5 nM: IC50 (second compound 1 µM)
inactive: viability, T/C (second compound 0.1 µM, first compound 0.000949 µM) 77.4% | viability, T/C (second compound 0.1 µM, first compound 0.003 µM) 68.3% | viability, T/C [1] 67.8% | viability, T/C [2] 53.5% | viability, T/C [3] 46.8% | viability, T/C [4] 33% | viability, T/C (second compound 0.316 µM, first compound 0.000949 µM) 73.9% | viability, T/C (second compound 0.316 µM, first compound 0.003 µM) 72% | viability, T/C [5] 67.3% | viability, T/C [6] 52.9% | viability, T/C [7] 46% | viability, T/C [8] 39.5% | viability, T/C (second compound 1 µM, first compound 0.000949 µM) 85.9% | viability, T/C (second compound 1 µM, first compound 0.003 µM) 68.1% | viability, T/C [9] 62.4% | viability, T/C [10] 50.4% | viability, T/C [11] 48% | viability, T/C [12] 41.9% | viability, T/C (second compound 3.16 µM, first compound 0.000949 µM) 84.3% | viability, T/C (second compound 3.16 µM, first compound 0.003 µM) 77.5% | viability, T/C [13] 70.4% | viability, T/C [14] 59.9% | viability, T/C [15] 48.7% | viability, T/C [16] 41.3% | viability, T/C (second compound 10 µM, first compound 0.000949 µM) 66.7% | viability, T/C (second compound 10 µM, first compound 0.003 µM) 68.5% | viability, T/C [17] 69.3% | viability, T/C [18] 54.6% | viability, T/C [19] 45.8% | viability, T/C [20] 39.2%

COc1ccc([C@@H](O)c2cc(-c3ncnc4cc(N5CCOCC5)ccc34)c(F)cc2Cl)nn1 + NC1CC1c1ccc(-c2cccc(O)c2)cc1
1450 nM: IC50 (second compound 10 µM)
1490 nM: IC50 (second compound 1 µM)
1330 nM: IC50 (second compound 0.1 µM)
1440 nM: IC50 (second compound 3.16 µM)
2000 nM: IC50 (second compound 0.316 µM)
inactive: viability, T/C [21] 97% | viability, T/C [22] 95.6% | viability, T/C [23] 87.2% | viability, T/C [24] 55.9% | viability, T/C [41] 29.6% | viability, T/C [42] 17.8% | viability, T/C [25] 112% | viability, T/C [26] 102% | viability, T/C [27] 91.1% | viability, T/C [28] 73.2% | viability, T/C [43] 34.3% | viability, T/C [44] 15.1% | viability, T/C [29] 117% | viability, T/C [30] 103% | viability, T/C [31] 95.2% | viability, T/C [32] 61.3% | viability, T/C [45] 28.1% | viability, T/C [46] 15.9% | viability, T/C [33] 105% | viability, T/C [34] 105% | viability, T/C [35] 79.7% | viability, T/C [36] 62.7% | viability, T/C [47] 28.6% | viability, T/C [48] 15.1% | viability, T/C [37] 124% | viability, T/C [38] 114% | viability, T/C [39] 96.6% | viability, T/C [40] 57% | viability, T/C [49] 32.2% | viability, T/C [50] 14.9%
